Laboratory results reported in patent US10981911B2, “Imidazopyrrolopyridine as inhibitors of the JAK family of kinases” (Janssen Pharmaceutica NV, priority 2016, dated 2021).

How the values were obtained:
Format in all cases: biochemical
JAK1-JH1JH2 = JAK1-JH1JH2 (Homo sapiens (Human), UniProt P23458); assay: Enzymatic inhibition assay (RapidFire HTMS), JAK1; settings: 12.5 μM ATP, 200 μM substrate; read-out: JAK1-JH2JH1 IC50
Method in brief: (§1)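 Quenched with 0.5% TFA plus internal-standard peptide; phosphorylated product quantified by RapidFire C4 SPE–ESI-MS, 11-point 1:3 or 1:4 dilutions in duplicate.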

JAK3-JH1JH2 = JAK3-JH1JH2 (Homo sapiens (Human), UniProt P52333); assay: Enzymatic inhibition assay (RapidFire HTMS), JAK3; settings: 150 μM ATP, 40 μM substrate
JAK3-JH1JH2, sequence (P52333 512-1124): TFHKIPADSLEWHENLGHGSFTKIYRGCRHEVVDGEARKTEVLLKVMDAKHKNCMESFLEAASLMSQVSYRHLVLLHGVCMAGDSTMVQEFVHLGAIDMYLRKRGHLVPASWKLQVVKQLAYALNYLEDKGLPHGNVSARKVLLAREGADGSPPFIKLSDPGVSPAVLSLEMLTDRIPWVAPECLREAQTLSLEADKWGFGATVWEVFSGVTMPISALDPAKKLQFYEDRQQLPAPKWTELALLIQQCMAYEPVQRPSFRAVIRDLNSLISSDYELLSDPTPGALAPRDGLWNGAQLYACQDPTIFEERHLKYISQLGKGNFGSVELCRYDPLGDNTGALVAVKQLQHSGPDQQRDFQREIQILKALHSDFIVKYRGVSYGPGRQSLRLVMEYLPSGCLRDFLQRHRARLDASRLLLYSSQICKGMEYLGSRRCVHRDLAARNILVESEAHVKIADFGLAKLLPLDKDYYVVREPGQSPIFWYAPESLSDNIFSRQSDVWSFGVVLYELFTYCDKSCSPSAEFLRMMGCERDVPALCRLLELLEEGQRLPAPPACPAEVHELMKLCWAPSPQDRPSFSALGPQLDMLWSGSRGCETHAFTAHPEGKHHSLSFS
Method in brief: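 JAK3 JH1JH2 reaction incubated 45 min at 25 °C, then quenched with 0.5% TFA containing 0.15 μM internal standard peptide. Phosphopeptide product measured by RapidFire C4 SPE–ESI MS (positive mode); inhibition from product decrease versus uninhibited enzyme, 11-point 1:3 or 1:4 dilutions in duplicate.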

Tyk2-JH1JH2 = Tyk2-JH1JH2 (Homo sapiens (Human), UniProt P29597, C1142A/C936A); assay: Enzymatic inhibition assay (RapidFire HTMS), Tyk2; settings: 50 μM ATP, 200 μM substrate
Tyk2-JH1JH2, sequence (P29597 580-1182 C936A/C1142A): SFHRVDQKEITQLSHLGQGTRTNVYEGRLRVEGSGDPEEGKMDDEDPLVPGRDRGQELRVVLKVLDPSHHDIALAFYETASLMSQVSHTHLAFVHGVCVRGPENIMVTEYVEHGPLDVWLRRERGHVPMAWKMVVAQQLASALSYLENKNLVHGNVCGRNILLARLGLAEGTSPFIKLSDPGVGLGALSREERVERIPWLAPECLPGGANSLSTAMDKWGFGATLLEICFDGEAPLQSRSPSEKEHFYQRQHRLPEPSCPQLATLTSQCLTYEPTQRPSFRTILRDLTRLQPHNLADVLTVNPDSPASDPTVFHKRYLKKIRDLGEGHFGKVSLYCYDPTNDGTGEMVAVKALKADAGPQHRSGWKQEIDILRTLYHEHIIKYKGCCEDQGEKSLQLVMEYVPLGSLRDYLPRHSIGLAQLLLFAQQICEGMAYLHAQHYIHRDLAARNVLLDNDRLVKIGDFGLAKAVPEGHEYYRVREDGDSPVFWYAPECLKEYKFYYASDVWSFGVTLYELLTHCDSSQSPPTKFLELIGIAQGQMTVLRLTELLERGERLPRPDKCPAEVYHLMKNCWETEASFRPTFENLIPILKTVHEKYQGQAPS
Method in brief: as §1

JAK2-JH1JH2 = JAK2-JH1JH2 (Homo sapiens (Human), UniProt O60674); assay: Enzymatic inhibition assay (RapidFire HTMS), JAK2; settings: 30 μM ATP, 40 μM substrate
JAK2-JH1JH2, sequence (O60674 532-1132): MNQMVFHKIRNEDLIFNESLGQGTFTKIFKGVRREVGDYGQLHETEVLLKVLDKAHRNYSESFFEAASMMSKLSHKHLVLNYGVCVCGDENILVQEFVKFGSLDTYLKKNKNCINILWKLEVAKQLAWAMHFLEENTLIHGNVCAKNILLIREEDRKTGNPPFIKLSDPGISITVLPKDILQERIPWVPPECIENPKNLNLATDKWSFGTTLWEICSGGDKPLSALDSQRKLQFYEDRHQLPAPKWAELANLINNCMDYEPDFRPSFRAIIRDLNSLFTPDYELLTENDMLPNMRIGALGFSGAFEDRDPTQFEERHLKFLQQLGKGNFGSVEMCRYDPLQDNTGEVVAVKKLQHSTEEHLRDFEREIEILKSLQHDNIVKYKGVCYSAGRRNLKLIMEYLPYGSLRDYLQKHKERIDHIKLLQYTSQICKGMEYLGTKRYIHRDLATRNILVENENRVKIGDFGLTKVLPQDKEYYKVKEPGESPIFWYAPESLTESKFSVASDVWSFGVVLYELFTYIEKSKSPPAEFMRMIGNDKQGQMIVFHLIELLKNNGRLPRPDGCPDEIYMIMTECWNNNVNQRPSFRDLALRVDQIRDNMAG
Method in brief: as §1

JAK1-JH1JH2, sequence (P23458 574-1154): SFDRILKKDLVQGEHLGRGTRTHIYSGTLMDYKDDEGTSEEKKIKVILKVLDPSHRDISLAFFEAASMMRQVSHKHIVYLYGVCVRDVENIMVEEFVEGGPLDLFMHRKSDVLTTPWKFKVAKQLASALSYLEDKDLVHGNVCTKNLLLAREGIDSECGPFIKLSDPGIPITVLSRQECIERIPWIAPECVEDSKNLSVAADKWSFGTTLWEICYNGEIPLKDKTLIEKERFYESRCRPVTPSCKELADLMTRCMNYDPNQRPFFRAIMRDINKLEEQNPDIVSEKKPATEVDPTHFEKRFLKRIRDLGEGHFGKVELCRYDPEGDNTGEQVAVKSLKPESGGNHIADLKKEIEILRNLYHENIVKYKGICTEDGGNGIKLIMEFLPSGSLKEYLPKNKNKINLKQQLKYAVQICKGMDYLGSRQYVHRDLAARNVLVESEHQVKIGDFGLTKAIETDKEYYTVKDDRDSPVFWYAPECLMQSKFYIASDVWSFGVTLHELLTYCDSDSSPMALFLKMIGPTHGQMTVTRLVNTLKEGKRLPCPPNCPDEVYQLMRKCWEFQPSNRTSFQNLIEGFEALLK

Row | Structure (SMILES) | IC50 (JAK1-JH1JH2) [nM] | IC50 (JAK3-JH1JH2) [nM] | IC50 (Tyk2-JH1JH2) [nM] | IC50 (JAK2-JH1JH2) [nM]
1 | N#CC[C@H]1CC[C@H](n2c(CC(=O)NCC(O)CO)nc3cnc4[nH]ccc4c32)CC1 (stereo partly drawn) [Ex. 106, 2-(1-((1r,4r)-4-(Cyanomethyl)cyclohexyl)-1,6-dihydroimidazo[4,5-d]pyrrolo[2,3-b]pyridin-2-yl)-N-(2,3-dihydroxypropyl)acetamide] | 0.6 | 149 | 11.2 | 14.3
2 | N#CC[C@H]1CC[C@H](n2c(CC(=O)N3CCC(F)(F)CC3)nc3cnc4[nH]ccc4c32)CC1 [Ex. 107, 2-((1r,4r)-4-(2-(2-(4,4-Difluoropiperidin-1-yl)-2-oxoethyl)imidazo[4,5-d]pyrrolo[2,3-b]pyridin-1(6H)-yl)cyclohexyl)acetonitrile] | 0.6 | 142 | 5.1 | 18.2
3 | N#CC[C@H]1CC[C@H](n2c(COC(=O)Nc3ccccc3)nc3cnc4[nH]ccc4c32)CC1 [Ex. 109, (1-((1r,4r)-4-(Cyanomethyl)cyclohexyl)-1,6-dihydroimidazo[4,5-d]pyrrolo[2,3-b]pyridin-2-yl)methyl Phenylcarbamate] | 0.6 | 135 | 11.3 | 7.5
4 | N#CC[C@H]1CC[C@H](n2c(CN/C(=N\O)C3CC3)nc3cnc4[nH]ccc4c32)CC1 [Ex. 110, (EZ)—N-((1-((1r,4r)-4-(Cyanomethyl)cyclohexyl)-1,6-dihydroimidazo[4,5-d]pyrrolo[2,3-b]pyridin-2-yl)methyl)-N′-hydroxycyclopropanecarboximidamide] | 0.6 | 416 | 17.4 | 29
5 | N#CC[C@H]1CC[C@H](n2c(CC(=O)Nc3cccnc3)nc3cnc4[nH]ccc4c32)CC1 [Ex. 111, 2-(1-((1r,4r)-4-(Cyanomethyl)cyclohexyl)-1,6-dihydroimidazo[4,5-d]pyrrolo[2,3-b]pyridin-2-yl)-N-(pyridin-3-yl)acetamide] | 0.6 | 68 | 6.3 | 4
6 | N#CC[C@H]1CC[C@H](n2c(CO/N=C(\N)CC3CC3)nc3cnc4[nH]ccc4c32)CC1 [Ex. 112, (Z)—N-((1-((1r,4r)-4-(Cyanomethyl)cyclohexyl)-1,6-dihydroimidazo[4,5-d]pyrrolo[2,3-b]pyridin-2-yl)methoxy)-2-cyclopropylacetimidamide] | 0.6 | 161 | 40.8 | 3.6
7 | COCc1nc2cnc3[nH]ccc3c2n1[C@H]1CC[C@H](CC#N)CC1 [Ex. 113, 2-((1r,4r)-4-(2-(Methoxymethyl)imidazo[4,5-d]pyrrolo[2,3-b]pyridin-1(6H)-yl)cyclohexyl)acetonitrile] | 0.6 | 322 | 11.2 | 10.2
8 | N#CC[C@H]1CC[C@H](n2c(C(=O)NCCO)nc3cnc4[nH]ccc4c32)CC1 [Ex. 114, 1-((1r,4r)-4-(Cyanomethyl)cyclohexyl)-N-(2-hydroxyethyl)-1,6-dihydroimidazo[4,5-d]pyrrolo[2,3-b]pyridine-2-carboxamide] | 0.6 | 102 | 12.7 | 4.8
9 | N#CC[C@H]1CC[C@H](n2c(-c3ccc(C#N)nc3)nc3cnc4[nH]ccc4c32)CC1 [Ex. 115, 5-(1-((1r,4r)-4-(Cyanomethyl)cyclohexyl)-1,6-dihydroimidazo[4,5-d]pyrrolo[2,3-b]pyridin-2-yl)picolinonitrile] | 0.6 | 754 | 86.2 | 73.2
10 | CC(C)(O)CC(=O)NCc1nc2cnc3[nH]ccc3c2n1[C@H]1CC[C@H](CC#N)CC1 [Ex. 116, N-((1-((1r,4r)-4-(Cyanomethyl)cyclohexyl)-1,6-dihydroimidazo[4,5-d]pyrrolo[2,3-b]pyridin-2-yl)methyl)-3-hydroxy-3-methylbutanamide] | 0.6 | 1190 | 50.9 | 86.7
11 | N#CC[C@H]1CC[C@H](n2c(CC(=O)Nc3ccncc3)nc3cnc4[nH]ccc4c32)CC1 [Ex. 118, 2-(1-((1r,4r)-4-(Cyanomethyl)cyclohexyl)-1,6-dihydroimidazo[4,5-d]pyrrolo[2,3-b]pyridin-2-yl)-N-(pyridin-4-yl)acetamide] | 0.7 | 50.5 | 5.4 | 3.5
12 | N#CC[C@H]1CC[C@H](n2c(-c3cncs3)nc3cnc4[nH]ccc4c32)CC1 [Ex. 119, 2-((1r,4r)-4-(2-(Thiazol-5-yl)imidazo[4,5-d]pyrrolo[2,3-b]pyridin-1(6H)-yl)cyclohexyl)acetonitrile] | 0.7 | 117 | 15.7 | 8.8
13 | COCCNC(=O)Cc1nc2cnc3[nH]ccc3c2n1[C@H]1CC[C@H](CC#N)CC1 [Ex. 120, 2-(1-((1r,4r)-4-(Cyanomethyl)cyclohexyl)-1,6-dihydroimidazo[4,5-d]pyrrolo[2,3-b]pyridin-2-yl)-N-(2-methoxyethyl)acetamide] | 0.7 | 228 | 19.1 | 16
14 | N#CC[C@H]1CC[C@H](n2c(-c3ccc(C(=O)c4ccc(CO)cc4)cc3)nc3cnc4[nH]ccc4c32)CC1 [Ex. 121, 2-((1r,4r)-4-(2-(4-(4-(Hydroxymethyl)benzoyl)phenyl)imidazo[4,5-d]pyrrolo[2,3-b]pyridin-1(6H)-yl)cyclohexyl)acetonitrile] | 0.7 | 431 | 44.3 | 11.4
15 | N#CC[C@H]1CC[C@H](n2c(C(=O)NC3COC3)nc3cnc4[nH]ccc4c32)CC1 [Ex. 122, 1-((1r,4r)-4-(Cyanomethyl)cyclohexyl)-N-(oxetan-3-yl)-1,6-dihydroimidazo[4,5-d]pyrrolo[2,3-b]pyridine-2-carboxamide] | 0.7 | 437 | 21.6 | 20.8
16 | N#CC[C@H]1CC[C@H](n2c(CO/N=C(\N)c3ccccc3)nc3cnc4[nH]ccc4c32)CC1 [Ex. 124, (Z*)—N-((1-((1r,4r)-4-(Cyanomethyl)cyclohexyl)-1,6-dihydroimidazo[4,5-d]pyrrolo[2,3-b]pyridin-2-yl)methoxy)benzimidamide] | 0.7 | 141 | 18.1 | 4.4
17 | COCC/C(=N/O)NCc1nc2cnc3[nH]ccc3c2n1[C@H]1CC[C@H](CC#N)CC1 [Ex. 125] | 0.7 | 622 | 14.9 | 27.1
18 | C#Cc1ccc(C(=O)c2ccc(COCc3nc4cnc5[nH]ccc5c4n3[C@H]3CC[C@H](CC#N)CC3)cc2)cc1 [Ex. 126, 2-((1r,4r)-4-(2-(((4-(4-Ethynylbenzoyl)benzyl)oxy)methyl)imidazo[4,5-d]pyrrolo[2,3-b]pyridin-1(6H)-yl)cyclohexyl)acetonitrile] | 0.7 | 317 | 14.2 | 19.4
19 | N#CC[C@H]1CC[C@H](n2c(CC(=O)N3CC[C@@H](O)C3)nc3cnc4[nH]ccc4c32)CC1 [Ex. 127, 2-((1r,4r)-4-(2-(2-((R)-3-Hydroxypyrrolidin-1-yl)-2-oxoethyl)imidazo[4,5-d]pyrrolo[2,3-b]pyridin-1(6H)-yl)cyclohexyl)acetonitrile] | 0.7 | 788 | 12.8 | 69.4
20 | CCOC(=O)N1CC(c2nc3cnc4[nH]ccc4c3n2[C@H]2CC[C@H](CC#N)CC2)C1 [Ex. 128, Ethyl 3-(1-((1r,4r)-4-(Cyanomethyl)cyclohexyl)-1,6-dihydroimidazo[4,5-d]pyrrolo[2,3-b]pyridin-2-yl)azetidine-1-carboxylate] | 0.7 | 1090 | 64.4 | 110
21 | CC(C)c1noc(=O)n1Cc1nc2cnc3[nH]ccc3c2n1[C@H]1CC[C@H](CC#N)CC1 [Ex. 129, 2-((1r,4r)-4-(2-((3-Isopropyl-5-oxo-1,2,4-oxadiazol-4(5H)-yl)methyl)imidazo[4,5-d]pyrrolo[2,3-b]pyridin-1(6H)-yl)cyclohexyl)acetonitrile] | 0.8 | 2690 | 10.7 | 150
22 | C#Cc1ccc(C(=O)c2ccc(OCc3nc4cnc5[nH]ccc5c4n3[C@H]3CC[C@H](CC#N)CC3)cc2)cc1 [Ex. 130, 2-((1r,4r)-4-(2-((4-(4-Ethynylbenzoyl)phenoxy)methyl)imidazo[4,5-d]pyrrolo[2,3-b]pyridin-1(6H)-yl)cyclohexyl)acetonitrile] | 0.8 | 130 | 19.4 | 15.7
23 | N#CC[C@H]1CC[C@H](n2c(CC(=O)NC34CCC(CO)(CC3)C4)nc3cnc4[nH]ccc4c32)CC1 [Ex. 131, 2-(1-((1r,4r)-4-(Cyanomethyl)cyclohexyl)-1,6-dihydroimidazo[4,5-d]pyrrolo[2,3-b]pyridin-2-yl)-N-(4-(hydroxymethyl)bicyclo[2.2.1]heptan-1-yl)acetamide] | 0.8 | 100 | 10.5 | 5.6
24 | CC(C)(O)CNC(=O)Cc1nc2cnc3[nH]cc(F)c3c2n1[C@H]1CC[C@H](CC#N)CC1 [Ex. 132, 2-(1-((1r,4r)-4-(Cyanomethyl)cyclohexyl)-8-fluoro-1,6-dihydroimidazo[4,5-d]pyrrolo[2,3-b]pyridin-2-yl)-N-(2-hydroxy-2-methylpropyl)acetamide] | 0.8 | 61.7 | 16.1 | 13.8
